Assay results: patent publication US7109380B2, “Cyclopentenedione antifungal compounds and methods for their use” (The University of Mississippi, priority 2004, dated 2006)

Key:
Experiment in all cases: 96-well microtiter fungal growth assay;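 on Mean percent fungal growth inhibition of Botrytis cinerea: percent relative to untreated positive growth controls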;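 on Mean percent fungal growth inhibition of Colletotrichum acutatum: percent relative to untreated positive growth controls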;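 on Mean percent fungal growth inhibition of Colletotrichum fragariae: percent relative to untreated positive growth controls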;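 on Mean percent fungal growth inhibition of Colletotrichum gloeosporoides: percent relative to untreated positive growth controls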;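 on Mean percent fungal growth inhibition of Fusarium oxysporum: percent relative to untreated positive growth controls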
Type in all cases: cell-based
Botrytis cinerea = tested on: Botrytis cinerea;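 on Mean percent fungal growth inhibition of Botrytis cinerea: percent relative to untreated positive growth controls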
Excerpt: (§1) Pathogen collection. Isolates of Colletotrichum acutatum Simmonds, Colletotrichum fragariae Brooks, and Colletotrichum gloeosporioides (Penz.) Penz. & Sacc. in Penz. were obtained from B. J. Smith, USDA, ARS, Small Fruit Research Station, Poplarville, Mass. Colletotrichum fragariae (isolate CF63), C. acutatum (isolate CAGoff), and C. gloeosporioides (isolate CG162) were used for all pathogen and bioautography studies. Isolate CF63 is one of the most virulent isolates at infecting strawberry plants and inducing both crown and fruit rot (Smith and Black, 1990). CF63, CAGoff, and CG162 were used as standard test isolates because of our extensive knowledge of these isolates and their known fungicide sensitivity profiles in both bioautography and microtiter formats. The three Colletotrichum species were isolated from strawberry (Fragaria xananassa Duchesne). Botrytis cinerea Pers.:Fr, was isolated from commercial grape (Vitis vinifera L.) and Fusarium oxysporum Schlechtend:Fr from orchid (Cynoches sp.) by David E. Wedge, USDA ARS Natural Products Utilization Research Unit. Phomopsis viticola (Sacc.) and P. obscurans (Ellis & Everh.) Sutton were from Mike A. Ellis, Ohio State University, Wooster, Ohio. Fungi were grown on potato-dextrose agar (PDA, Difco, Detroit Mich.) in 9 cm petri dishes and incubated in a growth chamber at 24±2° C. and under cool-white fluorescent lights ([…]·m^−2·sec^−1 light) with 12-h photoperiod.
(§2) Inoculum preparation. Conidia were harvested from 7–10 day-old cultures by flooding plates with 5 mL of sterile distilled water and dislodging conidia by softly brushing the colonies with an L-shaped glass rod. Conidial suspensions were filtered through sterile miracloth (Calbiochem-Novabiochem Corp., La Jolla Calif.) to remove mycelia. Conidia concentrations were determined photometrically, from a standard curve based on the absorbance at 625 nm and suspensions were then adjusted with sterile distilled water to a concentration of 1.0×10^6 conidia/mL.
(§3) Microtiter assay. A standardized 96-well microtiter plate assay developed for discovery of natural product fungicidal agents. A 96-well microtiter assay was used to determine sensitivity of B. cinerea, C. acutatum, C. fragariae, C. gloeosporioides, F. oxysporum, Phomopsis viticola, and P. obscurans to the various antifungal agents in comparison with known fungicidal standards. Vinclozolin, captan, and thiabendazole, which represent three different modes of action, were used as standards in this experiment. Each fungus was challenged in a dose-response format using test compounds where the final treatment concentrations were 0.3, 3.0 and 30.0 μM. Microtiter plates (Nunc MicroWell, untreated; Roskilde, Denmark) were covered with a plastic lid and incubated in a growth chamber at 24±1 C and 12 h photoperiod under 60±5 μmol light. Growth was then evaluated by measuring absorbance of each well at 620 nm using a microplate photometer (Packard Spectra Count, Packard Instrument Co., Downers Grove, Ill.).
(§4) Microbioassay Experimental Design. Chemical sensitivity of each fungus 96-well microtiter assay is used to determine sensitivity of B. cinerea, C. acutatum, C. fragariae, C. gloeosporioides, F. oxysporum, Phomopsis viticola, and P. obscurans. Each chemical is evaluated in duplicate at each dose (0.3, 3.0 and 30.0 μM) and repeated twice in time. Sixteen wells containing broth and inoculum serves as positive controls, eight wells containing solvent at the appropriate concentration and broth without inoculum are used as negative controls. Mean absorbance values and standard errors is used to evaluate fungal growth at 48 hrs and 72 hrs except for P. obscurans and P. viticola the data are recorded at 120 hrs. […] Treatments are arranged as a split-plot design replicated twice in time. Whole-plots were fungal isolates and sub-plots are chemicals. Each dose level and response time is analyzed separately. […]

Colletotrichum acutatum = tested on: Colletotrichum acutatum;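 on Mean percent fungal growth inhibition of Colletotrichum acutatum: percent relative to untreated positive growth controls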
Excerpt: as §1, §2, §3, §4

Colletotrichum fragariae = tested on: Colletotrichum fragariae;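 on Mean percent fungal growth inhibition of Colletotrichum fragariae: percent relative to untreated positive growth controls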
Excerpt: as §1, §2, §3, §4

[1] = tested on: Colletotrichum gloeosporioides;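 on Mean percent fungal growth inhibition of Colletotrichum gloeosporoides: percent relative to untreated positive growth controls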
Excerpt: as §1, §2, §3, §4

Fusarium oxysporum = tested on: Fusarium oxysporum;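 on Mean percent fungal growth inhibition of Fusarium oxysporum: percent relative to untreated positive growth controls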
Excerpt: as §1, §2, §3, §4

In the case of `COC(/C=C/c1ccccc1)=C1\C(=O)C=C(C)C1=O` [Compound 1, coruscanone A], the “Mean percent fungal growth inhibition of Botrytis cinerea” value (Botrytis cinerea; 0.3 μm, 48 hrs) is reported as −7.3 ± 12.8%, the “Mean percent fungal growth inhibition of Botrytis cinerea” value (Botrytis cinerea; 0.3 μm, 72 hrs) is reported as 28.1 ± 8.3% and the “Mean percent fungal growth inhibition of Botrytis cinerea” value (Botrytis cinerea; 3.0 μm, 48 hrs) is reported as −45.2 ± 16.4%. For the same molecule, the “Mean percent fungal growth inhibition of Botrytis cinerea” value (Botrytis cinerea; 3.0 μm, 72 hrs) was −15.7 ± 10.6%, the “Mean percent fungal growth inhibition of Botrytis cinerea” value (Botrytis cinerea; 30 μm, 48 hrs) was −69.6 ± 9.8% and the “Mean percent fungal growth inhibition of Botrytis cinerea” value (Botrytis cinerea; 30 μm, 72 hrs) was −88.4 ± 5.6%. For the same molecule, the IC50 (Botrytis cinerea; Botrytis cinerea, 48 h, read-out: IC50 (growth inhibition)) was < 1.55 µM, the “Mean percent fungal growth inhibition of Colletotrichum acutatum” value (Colletotrichum acutatum; 0.3 μm, 48 hrs) was 49.7 ± 6.6% and the “Mean percent fungal growth inhibition of Colletotrichum acutatum” value (Colletotrichum acutatum; 0.3 μm, 72 hrs) was 38.0 ± 3.0%. The “Mean percent fungal growth inhibition of Colletotrichum acutatum” value (Colletotrichum acutatum; 3.0 μm, 48 hrs) was −73.1 ± 4.9%, the “Mean percent fungal growth inhibition of Colletotrichum acutatum” value (Colletotrichum acutatum; 3.0 μm, 72 hrs) was −21.8 ± 4.4% and the “Mean percent fungal growth inhibition of Colletotrichum acutatum” value (Colletotrichum acutatum; 30 μm, 48 hrs) was −95.8 ± 1.9%. For the same molecule, the “Mean percent fungal growth inhibition of Colletotrichum acutatum” value (Colletotrichum acutatum; 30 μm, 72 hrs) was −97.6 ± 0.8%, the IC50 (Colletotrichum acutatum; Colletotrichum acutatum, C. acutatum, 96-well microbioassay, read-out: IC50 (growth inhibition)) was < 3.1 µM and the “Mean percent fungal growth inhibition of Colletotrichum fragariae” value (Colletotrichum fragariae; 0.3 μm, 48 hrs) was −14.1 ± 10.8%. The “Mean percent fungal growth inhibition of Colletotrichum fragariae” value (Colletotrichum fragariae; 0.3 μm, 72 hrs) was −4.8 ± 5.0%, the “Mean percent fungal growth inhibition of Colletotrichum fragariae” value (Colletotrichum fragariae; 3.0 μm, 48 hrs) was −94.0 ± 1.9% and the “Mean percent fungal growth inhibition of Colletotrichum fragariae” value (Colletotrichum fragariae; 3.0 μm, 72 hrs) was −54.6 ± 18.7%. For the same molecule, the “Mean percent fungal growth inhibition of Colletotrichum fragariae” value (Colletotrichum fragariae; 30 μm, 48 hrs) was −96.9 ± 1.9%, the “Mean percent fungal growth inhibition of Colletotrichum fragariae” value (Colletotrichum fragariae; 30 μm, 72 hrs) was −67.4 ± 18.3% and the IC50 (Colletotrichum fragariae; Colletotrichum fragariae, C. fragariae, 96-well microbioassay, read-out: IC50 (growth inhibition)) was < 3.1 µM. For the same molecule, the “Mean percent fungal growth inhibition of Colletotrichum gloeosporoides” value ([1]; 0.3 μm, 48 hrs) was 37.7 ± 9.0%, the “Mean percent fungal growth inhibition of Colletotrichum gloeosporoides” value ([1]; 0.3 μm, 72 hrs) was 46.7 ± 3.9% and the “Mean percent fungal growth inhibition of Colletotrichum gloeosporoides” value ([1]; 3.0 μm, 48 hrs) was −79.9 ± 2.8%. The “Mean percent fungal growth inhibition of Colletotrichum gloeosporoides” value ([1]; 3.0 μm, 72 hrs) was −13.8 ± 3.7%, the “Mean percent fungal growth inhibition of Colletotrichum gloeosporoides” value ([1]; 30 μm, 48 hrs) was −95.2 ± 2.2% and the “Mean percent fungal growth inhibition of Colletotrichum gloeosporoides” value ([1]; 30 μm, 72 hrs) was −94.4 ± 1.6%. The IC50 ([1]; Colletotrichum gloeosporioides, C. gleoesporioides, 96-well microbioassay, read-out: IC50 (growth inhibition)) was < 3.1 µM, the “Mean percent fungal growth inhibition of Fusarium oxysporum” value (Fusarium oxysporum; 0.3 μm, 48 hrs) was 2.4 ± 4.7% and the “Mean percent fungal growth inhibition of Fusarium oxysporum” value (Fusarium oxysporum; 0.3 μm, 72 hrs) was 12.2 ± 2.1%. For the same molecule, the “Mean percent fungal growth inhibition of Fusarium oxysporum” value (Fusarium oxysporum; 3.0 μm, 48 hrs) was −76.9 ± 1.6%, the “Mean percent fungal growth inhibition of Fusarium oxysporum” value (Fusarium oxysporum; 3.0 μm, 72 hrs) was −24.2 ± 3.3% and the “Mean percent fungal growth inhibition of Fusarium oxysporum” value (Fusarium oxysporum; 30 μm, 48 hrs) was −99.3 ± 0.2%. The “Mean percent fungal growth inhibition of Fusarium oxysporum” value (Fusarium oxysporum; 30 μm, 72 hrs) was −98.9 ± 0.2% and the IC50 (Fusarium oxysporum; Fusarium oxysporum, F. oxysporum, 96-well microbioassay, read-out: IC50 (growth inhibition)) was < 12.5 µM.
